What was measured:
A549 = experiment: In vitro anticancer screening, MTT cell viability; format: cell-based; settings: Homo sapiens; for inhibition at 100 µM: A549, 100 μM dose, read-out: Growth inhibition (%)
Experimental: (§1) Anticancer activity screening was adopted against five cancer cell lines, viz., HepG2, PC-3, HCT116, MCF-7, A549, and doxorubicin was used as a reference standard at 100 micromole.
(§2) Cell viability was assessed by the mitochondrial dependent reduction of yellow MTT (3-(4,5-dimethylthiazol-2-yl)-2,5-diphenyl tetrazolium bromide) to purple formazan. All the following procedures were done in a sterile area using a laminar air flow cabinet of class II biosafety (Baker, SG403INT, Sanford, Me., USA). Cells were suspended in DMEM medium for PC-3, and RPMI1640 in case of A-549, MCF-7, HCT-116 and HePG-2. The media are supplemented with 1% antibiotic antimycotic mixture (10,000 U ml^−1 Potassium Penicillin, 10,000 μg ml^−1 Streptomycin Sulfate and 25 μg ml^−1 Amphotericin B), 1% L-glutamine and 10% fetal bovine serum (complete growth medium) and kept at […] under 5% CO2. Cells were batch cultured for 10 days, then seeded at a concentration of 10×10^3 cells/well in fresh complete growth medium in 96-well Microtiter plastic plates at 37° C. for 24 h under 5% CO2 and a humid atmosphere using a water jacketed carbon dioxide incubator (Sheldon, TC2323, Cornelius, Oreg., USA). Media was aspirated, fresh medium (without serum) was added, and cells were incubated either alone (negative control) or with serial dilutions of each sample. After 48 h of incubation, the medium was aspirated, 40 μl MTT salt (2.5 μg ml^−1) was added to each well and incubated for a further four hours at 37° C. under 5% CO2. To stop the reaction and dissolving the formed crystals, 200 μl of 10% sodium dodecyl sulfate (SDS) in deionized water was added to each well and incubated overnight at 37° C. The absorbance was then measured using a microplate multi-well reader ELISA reader (Bio-Rad Laboratories Inc., model 3350, Hercules, Calif., USA) at 595 nm and a reference wavelength of 620 nm. A statistical significance was tested between samples and negative control (cells with vehicle) using independent t-test by SPSS 11 program. DMSO is the vehicle used for dissolution of plant extracts, and its final concentration in the cells was less than 0.2%. The percentage of change in viability was calculated according to the formula: (average absorbance of extract/average absorbance of negative control)−1)×100. A probit analysis was carried for IC50 determination using SPSS 11 program.

HCT116 = experiment: In vitro anticancer screening, MTT cell viability; format: cell-based; settings: Homo sapiens, HCT-116; for inhibition at 100 µM: HCT116, 100 μM dose, read-out: Growth inhibition (%); for IC50: HCT116, MTT, 48 h
Experimental: as §1, §2

HepG2 = experiment: In vitro anticancer screening, MTT cell viability; format: cell-based; settings: Homo sapiens; for inhibition at 100 µM: HepG2, 100 μM dose, read-out: Growth inhibition (%); for IC50: HepG2, MTT, 48 h
Experimental: as §1, §2

MCF7 = experiment: In vitro anticancer screening, MTT cell viability; format: cell-based; settings: Homo sapiens; for inhibition at 100 µM: MCF7, 100 μM dose, read-out: Growth inhibition (%)
Experimental: as §1, §2

PC3 = experiment: In vitro anticancer screening, MTT cell viability; format: cell-based; settings: Homo sapiens, PC-3; for inhibition at 100 µM: PC3, 100 μM dose, read-out: Growth inhibition (%); for IC50: PC3, MTT, 48 h
Experimental: as §1, §2

CDK4/CyclinD1 = CDK4/CyclinD1 (Homo sapiens, UniProt P11802); experiment: Kinase screening (radiometric or ADP-Glo assay); format: biochemical
Experimental: (§3) The in vitro enzyme inhibition determination for the pyrido[2,3-d]pyrimidine derivatives was performed against a range of five protein kinases [PDGFR beta, EGFR, CDK4/Cyclin D1, PI3K (p100b/p85a), and PI3K (p100a/p85a)], including two concentrations (50 & 100 μM) in single measurements using the radiometric or ADP-Glo assay method. The intra-assay variability was determined to be less than 10%. Inhibition of target activity by the compound gives negative (−) values, while activation of target activity gives positive (+) value.
(§4) The pyrido[2,3-d]pyrimidine derivative 5 was supplied by Kinexus as a powder, and a stock solution was made in DMSO. The stock solution was then diluted to form an assay stock solution, and this was used to profile against the protein kinases and lipid protein kinases [PDGFR beta, EGFR, CDK4/Cyclin D1, PI3K (p100b/p85a), and PI3K (p100a/p85a)]. The assay condition for the protein kinase targets was optimized to yield acceptable enzymatic activity. In addition, the assays were optimized to give high signal-to-noise ratio.
(§5) For Protein Kinase (PK) Assays, a radioisotope assay format was used for profiling evaluation of PK targets and all assays were carried out in a designated radioactive working area. PK assays (in singlicate) were performed at ambient temperature for 30 min in a final volume of 25 μl according to the following assay reaction recipe: Component 1:5 μl of diluted active PK target (˜10-50 nM final concentration); Component 2:5 μl of stock solution of substrate (1-5 μg of peptide substrate); Component 3:5 μl of kinase assay buffer; Component 4:5 μl of compound (50 μM) or 10% DMSO; and Component 5:5 μl of ^33P-ATP (250 μM stock solution, 0.8 μCi).
(§6) The assay was initiated by the addition of ^33P-ATP, and the reaction mixture incubated at ambient temperature for 30 minutes. After the incubation period, the assay was terminated by spotting 10 μl of the reaction mixture onto Multiscreen phosphocellulose P81 plate. The Multiscreen phosphocellulose P81 plate was washed 3 times for approximately 15 min each in a 1% phosphoric acid solution. The radioactivity on the P81 plate was counted in the presence of scintillation fluid in a Trilux scintillation counter. Blank control was set up that included all the assay components except the addition of the appropriate substrate (replaced with equal volume of assay dilution buffer). The corrected activity for PK target was determined by removing the blank control value.

EGFR = EGFR (Homo sapiens, UniProt P00533); experiment: Kinase screening (radiometric or ADP-Glo assay); format: biochemical
Experimental: as §3, §4, §5, §6

PDGFRβ = PDGFRβ (Homo sapiens, UniProt P09619); experiment: Kinase screening (radiometric or ADP-Glo assay); format: biochemical
Experimental: as §3, §4, §5, §6

PI3K (p110a/p85a) = PI3K (p110a/p85a) (Homo sapiens, UniProt P42336); experiment: Kinase screening (radiometric or ADP-Glo assay); format: biochemical; settings: negative values: inhibition, positive values: activation of target activity
Experimental: as §3, §4, §5, §6

Chain of PDGFRβ (P09619 33-1106, species assumed): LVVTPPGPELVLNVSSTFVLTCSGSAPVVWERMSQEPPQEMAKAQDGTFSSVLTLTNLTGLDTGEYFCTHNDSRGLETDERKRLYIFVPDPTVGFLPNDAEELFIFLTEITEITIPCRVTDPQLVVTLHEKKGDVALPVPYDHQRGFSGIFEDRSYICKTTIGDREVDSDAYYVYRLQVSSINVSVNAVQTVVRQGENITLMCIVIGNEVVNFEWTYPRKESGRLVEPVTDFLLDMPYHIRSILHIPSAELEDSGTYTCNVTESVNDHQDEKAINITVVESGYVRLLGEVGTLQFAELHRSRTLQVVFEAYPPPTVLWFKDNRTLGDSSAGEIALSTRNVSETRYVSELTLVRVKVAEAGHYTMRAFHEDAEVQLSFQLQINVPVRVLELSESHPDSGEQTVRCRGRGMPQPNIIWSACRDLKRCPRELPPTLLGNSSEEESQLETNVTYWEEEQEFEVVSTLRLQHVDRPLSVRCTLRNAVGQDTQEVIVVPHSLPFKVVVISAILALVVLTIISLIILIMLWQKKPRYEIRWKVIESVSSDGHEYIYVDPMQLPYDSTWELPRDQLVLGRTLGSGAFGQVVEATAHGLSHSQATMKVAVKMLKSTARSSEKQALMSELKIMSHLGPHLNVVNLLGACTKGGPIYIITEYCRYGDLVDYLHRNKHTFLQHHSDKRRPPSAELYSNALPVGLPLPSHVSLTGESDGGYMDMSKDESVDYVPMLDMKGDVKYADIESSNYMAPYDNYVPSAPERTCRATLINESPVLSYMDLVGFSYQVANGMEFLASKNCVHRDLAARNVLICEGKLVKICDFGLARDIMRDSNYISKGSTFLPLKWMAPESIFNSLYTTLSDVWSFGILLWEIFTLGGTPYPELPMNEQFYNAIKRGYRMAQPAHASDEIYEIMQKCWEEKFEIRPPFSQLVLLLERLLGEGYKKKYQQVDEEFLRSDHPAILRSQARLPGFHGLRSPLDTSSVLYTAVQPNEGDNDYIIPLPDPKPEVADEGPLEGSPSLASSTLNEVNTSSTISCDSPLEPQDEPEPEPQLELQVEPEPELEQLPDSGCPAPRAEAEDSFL
Chain of CDK4/CyclinD1 (P11802 whole entry, species assumed): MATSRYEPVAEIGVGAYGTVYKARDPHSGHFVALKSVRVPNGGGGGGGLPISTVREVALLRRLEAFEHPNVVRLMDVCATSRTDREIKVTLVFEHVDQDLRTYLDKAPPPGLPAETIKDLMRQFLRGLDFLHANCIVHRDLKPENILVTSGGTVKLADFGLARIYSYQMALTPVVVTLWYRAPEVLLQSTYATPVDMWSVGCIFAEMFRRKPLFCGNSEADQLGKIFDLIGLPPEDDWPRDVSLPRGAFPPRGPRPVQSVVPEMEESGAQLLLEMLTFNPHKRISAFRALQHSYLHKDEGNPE
Chain of CDK4/CyclinD1 (P24385 whole entry partner, species assumed): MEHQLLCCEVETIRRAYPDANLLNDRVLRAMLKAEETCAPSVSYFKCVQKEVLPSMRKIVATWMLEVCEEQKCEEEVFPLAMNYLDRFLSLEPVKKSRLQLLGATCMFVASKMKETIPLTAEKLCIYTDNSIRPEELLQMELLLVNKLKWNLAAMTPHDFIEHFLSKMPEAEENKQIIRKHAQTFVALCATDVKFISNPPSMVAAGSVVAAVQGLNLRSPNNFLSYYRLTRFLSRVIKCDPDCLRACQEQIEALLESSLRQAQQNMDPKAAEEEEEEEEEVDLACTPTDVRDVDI
Chain of EGFR (P00533 25-1210, species assumed): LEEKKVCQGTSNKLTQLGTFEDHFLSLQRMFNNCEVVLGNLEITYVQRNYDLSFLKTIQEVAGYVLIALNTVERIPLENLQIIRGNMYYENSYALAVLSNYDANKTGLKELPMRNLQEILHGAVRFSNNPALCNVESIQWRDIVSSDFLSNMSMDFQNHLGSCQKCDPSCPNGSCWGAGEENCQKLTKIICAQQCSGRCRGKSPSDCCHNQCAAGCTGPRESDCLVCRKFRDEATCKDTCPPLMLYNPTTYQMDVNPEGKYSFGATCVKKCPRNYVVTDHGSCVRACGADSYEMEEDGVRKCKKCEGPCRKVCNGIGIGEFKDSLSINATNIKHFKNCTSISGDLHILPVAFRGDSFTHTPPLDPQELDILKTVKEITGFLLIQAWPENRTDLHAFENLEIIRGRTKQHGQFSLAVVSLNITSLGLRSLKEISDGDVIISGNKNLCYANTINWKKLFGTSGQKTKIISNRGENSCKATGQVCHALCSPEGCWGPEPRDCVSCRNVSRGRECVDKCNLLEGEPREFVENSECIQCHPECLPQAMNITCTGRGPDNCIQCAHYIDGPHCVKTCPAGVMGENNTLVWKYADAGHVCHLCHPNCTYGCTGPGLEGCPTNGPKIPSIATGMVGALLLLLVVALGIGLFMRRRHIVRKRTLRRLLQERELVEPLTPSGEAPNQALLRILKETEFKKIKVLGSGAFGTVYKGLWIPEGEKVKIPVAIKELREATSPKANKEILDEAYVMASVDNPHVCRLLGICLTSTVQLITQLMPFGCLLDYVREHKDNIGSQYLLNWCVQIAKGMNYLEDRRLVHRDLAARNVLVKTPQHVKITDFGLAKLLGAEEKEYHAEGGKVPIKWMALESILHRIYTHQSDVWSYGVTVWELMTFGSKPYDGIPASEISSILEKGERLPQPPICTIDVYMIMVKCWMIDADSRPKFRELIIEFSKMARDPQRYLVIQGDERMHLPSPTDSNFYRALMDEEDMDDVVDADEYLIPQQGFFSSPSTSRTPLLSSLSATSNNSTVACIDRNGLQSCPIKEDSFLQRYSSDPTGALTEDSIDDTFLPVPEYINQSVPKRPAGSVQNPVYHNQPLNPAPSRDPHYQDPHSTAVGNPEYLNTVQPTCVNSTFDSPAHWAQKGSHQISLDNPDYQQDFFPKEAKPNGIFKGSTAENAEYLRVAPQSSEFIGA
Chain of PI3K (p110a/p85a) (P42336 whole entry): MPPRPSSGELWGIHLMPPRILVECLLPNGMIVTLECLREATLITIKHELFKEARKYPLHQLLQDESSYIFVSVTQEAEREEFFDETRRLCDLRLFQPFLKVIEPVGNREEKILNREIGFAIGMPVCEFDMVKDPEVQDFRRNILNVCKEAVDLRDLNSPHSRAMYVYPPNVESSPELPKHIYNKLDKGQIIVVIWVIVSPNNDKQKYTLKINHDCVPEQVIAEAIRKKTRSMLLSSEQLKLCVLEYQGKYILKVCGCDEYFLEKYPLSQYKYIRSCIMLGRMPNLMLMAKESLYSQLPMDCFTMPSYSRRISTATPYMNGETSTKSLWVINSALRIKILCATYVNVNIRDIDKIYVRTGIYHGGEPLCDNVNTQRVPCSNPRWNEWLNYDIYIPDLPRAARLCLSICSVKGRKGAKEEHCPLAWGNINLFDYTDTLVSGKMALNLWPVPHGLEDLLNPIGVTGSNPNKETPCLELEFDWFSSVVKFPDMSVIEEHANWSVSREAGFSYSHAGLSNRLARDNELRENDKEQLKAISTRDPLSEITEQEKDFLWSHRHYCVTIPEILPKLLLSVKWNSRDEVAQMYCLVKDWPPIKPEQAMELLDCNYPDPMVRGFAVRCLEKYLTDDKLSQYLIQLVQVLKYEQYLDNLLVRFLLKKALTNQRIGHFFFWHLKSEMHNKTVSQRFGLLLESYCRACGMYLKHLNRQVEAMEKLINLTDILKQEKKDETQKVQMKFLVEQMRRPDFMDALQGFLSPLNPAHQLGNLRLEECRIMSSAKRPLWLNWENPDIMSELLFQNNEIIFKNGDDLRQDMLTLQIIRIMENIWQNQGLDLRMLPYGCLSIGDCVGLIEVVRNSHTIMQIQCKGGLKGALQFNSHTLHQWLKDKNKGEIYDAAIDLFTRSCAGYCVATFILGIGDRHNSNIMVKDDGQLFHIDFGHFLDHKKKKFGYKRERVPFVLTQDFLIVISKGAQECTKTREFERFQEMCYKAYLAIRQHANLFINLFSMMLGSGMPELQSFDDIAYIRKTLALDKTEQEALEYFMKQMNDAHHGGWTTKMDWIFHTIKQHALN
Chain of PI3K (p110a/p85a) (P27986 whole entry partner): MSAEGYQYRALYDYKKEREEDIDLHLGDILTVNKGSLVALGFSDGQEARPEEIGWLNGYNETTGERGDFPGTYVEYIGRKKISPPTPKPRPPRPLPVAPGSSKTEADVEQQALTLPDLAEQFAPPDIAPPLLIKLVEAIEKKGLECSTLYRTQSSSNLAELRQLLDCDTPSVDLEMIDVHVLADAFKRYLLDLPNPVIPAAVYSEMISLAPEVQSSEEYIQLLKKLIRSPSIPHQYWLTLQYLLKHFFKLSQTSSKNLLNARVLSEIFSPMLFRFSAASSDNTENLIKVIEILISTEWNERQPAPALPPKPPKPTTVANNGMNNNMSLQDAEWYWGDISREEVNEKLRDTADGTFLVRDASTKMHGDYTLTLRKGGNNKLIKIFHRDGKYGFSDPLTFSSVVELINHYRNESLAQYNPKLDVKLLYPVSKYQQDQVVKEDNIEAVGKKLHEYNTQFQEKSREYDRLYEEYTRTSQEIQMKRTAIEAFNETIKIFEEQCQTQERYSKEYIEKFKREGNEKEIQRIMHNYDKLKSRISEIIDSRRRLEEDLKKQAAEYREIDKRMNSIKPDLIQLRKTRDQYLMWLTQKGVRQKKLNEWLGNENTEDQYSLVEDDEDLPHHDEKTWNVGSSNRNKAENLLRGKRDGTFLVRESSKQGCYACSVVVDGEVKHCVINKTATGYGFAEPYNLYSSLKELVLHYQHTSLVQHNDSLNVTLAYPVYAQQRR

Structure (SMILES)	inhibition at 100 µM (A549) [%]	IC50 (A549; A549, MTT, 48 h) [µM]	inhibition at 100 µM (HCT116) [%]	IC50 (HCT116) [µM]	inhibition at 100 µM (HepG2) [%]	IC50 (HepG2) [nM]	inhibition at 100 µM (MCF7) [%]	IC50 (MCF7; MCF7, MTT, 48 h) [µM]	inhibition at 100 µM (PC3) [%]	IC50 (PC3) [µM]	inhibition at 50 µM (CDK4/CyclinD1; 50 μM) [%]	inhibition at 100 µM (CDK4/CyclinD1; 100 μM) [%]	inhibition at 50 µM (EGFR; 50 μM) [%]	inhibition at 100 µM (EGFR; 100 μM) [%]	inhibition at 50 µM (PDGFRβ; 50 μM) [%]	inhibition at 100 µM (PDGFRβ; 100 μM) [%]	inhibition at 50 µM (PI3K (p110a/p85a); 50 μM) [%]	inhibition at 100 µM (PI3K (p110a/p85a); 100 μM) [%]	melting point [°C]
COc1cccc(-c2cc(-c3cccnc3)nc3nc(-n4[nH]c(C)cc4=O)[nH]c(=O)c23)c1 [Target]	99	3.21 ± 0.4	99	6.9 ± 0.5	100	300	87	9.1 ± 2.1	100	5.3 ± 0.09	31	73	79	85	83	90	-178	-185	> 300
COc1cccc2c1C(=O)c1c(O)c3c(c(O)c1C2=O)C[C@@](O)(C(=O)CO)C[C@@H]3O[C@H]1C[C@H](N)[C@H](O)[C@H](C)O1 [doxorubicin, reference compound]	100	–	100	12.8 ± 1	100	600	91	–	100	6.8 ± 1.2	–	–	–	–	–	–	–	–	–
